Calls of active or inactive are those of the source.
Tests used:
[1] = CCR5-tropic HIV-1 fusion blockers – cell-based, CCR5-tropic Env, dose response (AID 2279); type: functional
Protein RecA = target: T1, Protein RecA (Mycobacterium tuberculosis, UniProt P9WHJ3); assay: Fluorescence Cell-Free Homogeneous Dose Retest to Identify Inhibitors of RecA-Intein Splicing Activity. [Related pubchem assays (depositor defined):AID2097, AID2223, AID489010, AID492950]; type: functional
T1 sequence (P9WHJ3 whole entry): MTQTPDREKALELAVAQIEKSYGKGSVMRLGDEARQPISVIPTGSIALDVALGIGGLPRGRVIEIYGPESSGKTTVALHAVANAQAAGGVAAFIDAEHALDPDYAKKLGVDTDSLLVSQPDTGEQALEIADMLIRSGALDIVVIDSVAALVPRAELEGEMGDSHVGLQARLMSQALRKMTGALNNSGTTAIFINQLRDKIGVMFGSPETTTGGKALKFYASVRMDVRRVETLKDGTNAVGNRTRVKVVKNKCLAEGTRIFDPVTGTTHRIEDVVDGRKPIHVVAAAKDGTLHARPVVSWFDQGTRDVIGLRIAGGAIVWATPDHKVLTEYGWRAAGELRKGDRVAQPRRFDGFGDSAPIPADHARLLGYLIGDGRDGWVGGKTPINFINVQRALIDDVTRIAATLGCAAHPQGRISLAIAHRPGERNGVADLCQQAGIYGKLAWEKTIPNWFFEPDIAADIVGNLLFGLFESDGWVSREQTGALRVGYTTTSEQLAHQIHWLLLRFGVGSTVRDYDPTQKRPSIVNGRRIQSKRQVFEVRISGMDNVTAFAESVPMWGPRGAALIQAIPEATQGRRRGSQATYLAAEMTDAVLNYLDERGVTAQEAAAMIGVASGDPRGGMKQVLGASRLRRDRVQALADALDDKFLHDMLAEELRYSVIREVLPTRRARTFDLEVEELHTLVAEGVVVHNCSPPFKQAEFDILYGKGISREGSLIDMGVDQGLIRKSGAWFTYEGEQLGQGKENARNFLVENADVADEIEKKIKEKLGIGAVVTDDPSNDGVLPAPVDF

Aminopeptidase N = target: T2, Aminopeptidase N (Plasmodium falciparum FcB1/Columbia, UniProt O96935); assay: malaria alanyl aminopeptidase activity blockers – biochemical, fluorogenic H-Leu-NHMec substrate, 1536-well (AID 1445); parameters: species or system Plasmodium falciparum 3D7, 3D7
T2 sequence (O96935 whole entry): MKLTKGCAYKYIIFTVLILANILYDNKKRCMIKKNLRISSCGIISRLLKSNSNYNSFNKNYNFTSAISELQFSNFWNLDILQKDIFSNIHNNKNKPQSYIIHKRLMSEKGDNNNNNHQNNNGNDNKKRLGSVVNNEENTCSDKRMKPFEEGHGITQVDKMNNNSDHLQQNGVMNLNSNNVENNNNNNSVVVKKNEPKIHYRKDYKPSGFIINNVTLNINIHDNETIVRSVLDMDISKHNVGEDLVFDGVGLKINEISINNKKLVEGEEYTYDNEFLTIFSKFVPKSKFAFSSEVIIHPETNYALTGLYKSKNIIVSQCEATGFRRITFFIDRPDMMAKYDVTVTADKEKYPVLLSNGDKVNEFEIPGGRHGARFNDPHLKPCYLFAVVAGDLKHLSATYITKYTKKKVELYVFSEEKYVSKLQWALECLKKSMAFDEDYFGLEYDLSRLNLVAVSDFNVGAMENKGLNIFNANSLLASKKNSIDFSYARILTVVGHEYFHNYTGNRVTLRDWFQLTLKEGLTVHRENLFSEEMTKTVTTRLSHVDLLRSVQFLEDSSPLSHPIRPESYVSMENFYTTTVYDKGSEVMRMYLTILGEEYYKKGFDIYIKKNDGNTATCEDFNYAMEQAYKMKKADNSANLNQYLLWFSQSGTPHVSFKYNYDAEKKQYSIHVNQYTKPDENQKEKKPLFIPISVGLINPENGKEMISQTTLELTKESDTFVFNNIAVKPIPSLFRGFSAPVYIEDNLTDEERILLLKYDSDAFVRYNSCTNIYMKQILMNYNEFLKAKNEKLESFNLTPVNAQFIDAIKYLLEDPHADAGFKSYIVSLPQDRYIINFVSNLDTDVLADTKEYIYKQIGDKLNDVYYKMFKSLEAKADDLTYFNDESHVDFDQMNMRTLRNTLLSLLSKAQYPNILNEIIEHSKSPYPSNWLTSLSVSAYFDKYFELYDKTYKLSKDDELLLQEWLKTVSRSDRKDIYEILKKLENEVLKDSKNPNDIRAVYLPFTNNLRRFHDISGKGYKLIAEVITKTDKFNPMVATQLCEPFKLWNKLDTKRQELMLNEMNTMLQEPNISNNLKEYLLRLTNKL

[2] = target: T3, Replicative DNA helicase DnaB (Mycobacterium tuberculosis, UniProt P9WMR3); assay: DnaB intein splicing inhibitors, dose response, biochemical, cell-free fluorescence (AID 449749); type: functional
T3 sequence (P9WMR3 whole entry): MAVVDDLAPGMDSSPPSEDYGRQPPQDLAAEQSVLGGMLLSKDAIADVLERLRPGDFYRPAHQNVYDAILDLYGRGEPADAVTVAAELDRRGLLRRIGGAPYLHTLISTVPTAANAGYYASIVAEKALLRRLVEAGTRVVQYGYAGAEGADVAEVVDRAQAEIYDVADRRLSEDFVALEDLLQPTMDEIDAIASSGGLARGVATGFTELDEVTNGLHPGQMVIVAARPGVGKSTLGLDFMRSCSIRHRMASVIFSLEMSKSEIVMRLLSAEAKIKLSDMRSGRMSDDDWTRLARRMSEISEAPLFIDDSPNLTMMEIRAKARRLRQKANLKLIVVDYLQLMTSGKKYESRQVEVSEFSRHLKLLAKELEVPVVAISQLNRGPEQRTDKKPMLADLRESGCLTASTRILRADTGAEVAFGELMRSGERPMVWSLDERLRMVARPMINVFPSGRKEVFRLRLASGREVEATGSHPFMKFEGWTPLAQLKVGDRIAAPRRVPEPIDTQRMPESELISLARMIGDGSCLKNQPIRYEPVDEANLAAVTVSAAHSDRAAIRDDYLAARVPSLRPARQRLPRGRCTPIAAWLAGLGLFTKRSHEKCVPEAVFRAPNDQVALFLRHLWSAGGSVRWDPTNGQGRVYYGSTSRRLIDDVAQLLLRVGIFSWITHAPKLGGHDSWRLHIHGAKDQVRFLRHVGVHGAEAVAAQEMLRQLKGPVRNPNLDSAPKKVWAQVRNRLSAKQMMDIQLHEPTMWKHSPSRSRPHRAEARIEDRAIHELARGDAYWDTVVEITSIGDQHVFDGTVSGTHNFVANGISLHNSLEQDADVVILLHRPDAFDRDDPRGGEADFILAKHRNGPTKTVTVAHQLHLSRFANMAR

[3] = target: Bifunctional protein GlmU (Mycobacterium tuberculosis, UniProt P9WMN3); assay: Inhibitors of Mycobacterial Glucosamine-1-phosphate acetyl transferase (GlmU). Secondary screen.; parameters: species or system Mycobacterium tuberculosis H37Rv
Sequence of Bifunctional protein GlmU (P9WMN3 whole entry): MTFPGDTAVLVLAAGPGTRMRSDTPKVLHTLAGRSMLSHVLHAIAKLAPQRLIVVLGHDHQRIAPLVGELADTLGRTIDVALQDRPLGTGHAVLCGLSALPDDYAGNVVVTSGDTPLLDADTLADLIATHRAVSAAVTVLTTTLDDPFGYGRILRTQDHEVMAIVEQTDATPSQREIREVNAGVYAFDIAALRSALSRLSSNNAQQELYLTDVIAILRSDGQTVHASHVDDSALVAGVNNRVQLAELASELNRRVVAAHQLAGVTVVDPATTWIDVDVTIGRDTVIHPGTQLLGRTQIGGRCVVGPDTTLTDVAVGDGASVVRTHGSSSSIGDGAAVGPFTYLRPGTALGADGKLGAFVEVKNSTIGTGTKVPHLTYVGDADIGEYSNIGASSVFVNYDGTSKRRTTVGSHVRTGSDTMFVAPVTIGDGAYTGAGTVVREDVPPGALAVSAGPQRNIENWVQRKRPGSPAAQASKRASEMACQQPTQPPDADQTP

[4] = antiviral protection against BTV-induced cell death – arbovirus, BSR cells, confirmation (AID 1250); type: functional;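 further: protection from viral cytopathic effect measured as cell viability by ATP luminescence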
[5] = Counterscreen for IDE inhibitors: Luminescence-based cell-based high throughput dose response assay to identify compounds that are cytotoxic to HEK cells. [Related pubchem assays: 434962 (Primary screen (IDE inhibitors in singlicate)), 449730 (Counterscreen (Cytotoxicity in triplicate)), 435028 (Confirmation (IDE inhibitors in triplicate)) …; type: functional; settings: HEK293
Insulin-degrading enzyme = target: T4, Insulin-degrading enzyme (Homo sapiens, UniProt P14735); assay: Dose Response: Fluorescence polarization-based cell-based high throughput dose response assay for inhibitors of insulin-degrading enzyme (IDE). [Related pubchem assays: 434962 (Primary screen (IDE inhibitors in singlicate)), 449730 (Counterscreen (Cytotoxicity in triplicate)), 435028 (Confirmation (IDE inhibitors in triplicate)), 434984 (Summary …; type: functional
T4 sequence (P14735 whole entry): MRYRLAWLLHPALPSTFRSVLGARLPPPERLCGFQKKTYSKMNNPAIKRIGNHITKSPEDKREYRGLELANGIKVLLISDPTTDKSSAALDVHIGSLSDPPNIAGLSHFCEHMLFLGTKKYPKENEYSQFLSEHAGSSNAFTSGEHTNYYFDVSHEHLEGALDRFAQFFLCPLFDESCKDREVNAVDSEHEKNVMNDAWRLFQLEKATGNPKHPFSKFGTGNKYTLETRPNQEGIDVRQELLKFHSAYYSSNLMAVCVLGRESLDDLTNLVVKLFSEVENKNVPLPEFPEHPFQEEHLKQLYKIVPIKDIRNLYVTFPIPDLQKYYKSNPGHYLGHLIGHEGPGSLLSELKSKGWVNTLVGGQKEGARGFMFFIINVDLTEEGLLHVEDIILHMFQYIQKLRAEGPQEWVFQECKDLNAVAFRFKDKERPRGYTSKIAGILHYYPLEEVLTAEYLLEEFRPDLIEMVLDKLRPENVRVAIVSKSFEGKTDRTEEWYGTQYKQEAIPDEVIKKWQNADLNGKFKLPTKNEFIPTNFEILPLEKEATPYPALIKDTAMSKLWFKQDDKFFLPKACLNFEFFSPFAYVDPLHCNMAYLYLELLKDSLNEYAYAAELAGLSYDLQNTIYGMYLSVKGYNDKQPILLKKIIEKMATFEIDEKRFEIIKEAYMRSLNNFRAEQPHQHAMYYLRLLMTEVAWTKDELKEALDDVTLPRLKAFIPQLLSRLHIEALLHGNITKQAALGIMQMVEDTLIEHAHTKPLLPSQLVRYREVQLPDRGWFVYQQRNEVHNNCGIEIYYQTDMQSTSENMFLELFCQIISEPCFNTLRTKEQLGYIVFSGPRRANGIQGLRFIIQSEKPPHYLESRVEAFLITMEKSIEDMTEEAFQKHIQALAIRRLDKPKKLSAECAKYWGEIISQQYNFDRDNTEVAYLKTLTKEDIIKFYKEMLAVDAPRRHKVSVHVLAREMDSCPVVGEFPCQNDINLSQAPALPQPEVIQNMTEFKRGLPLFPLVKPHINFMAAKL

[6] = target: T5, Corticotropin-releasing factor receptor 2/Corticotropin-releasing factor-binding protein (Homo sapiens, UniProt P24387+Q13324); assay: activators of CRF receptor 2 with binding protein – uHTS hits, confirmation (AID 602473); type: functional; settings: read-out: EC50_Mean
T5 sequence (Q13324 whole entry): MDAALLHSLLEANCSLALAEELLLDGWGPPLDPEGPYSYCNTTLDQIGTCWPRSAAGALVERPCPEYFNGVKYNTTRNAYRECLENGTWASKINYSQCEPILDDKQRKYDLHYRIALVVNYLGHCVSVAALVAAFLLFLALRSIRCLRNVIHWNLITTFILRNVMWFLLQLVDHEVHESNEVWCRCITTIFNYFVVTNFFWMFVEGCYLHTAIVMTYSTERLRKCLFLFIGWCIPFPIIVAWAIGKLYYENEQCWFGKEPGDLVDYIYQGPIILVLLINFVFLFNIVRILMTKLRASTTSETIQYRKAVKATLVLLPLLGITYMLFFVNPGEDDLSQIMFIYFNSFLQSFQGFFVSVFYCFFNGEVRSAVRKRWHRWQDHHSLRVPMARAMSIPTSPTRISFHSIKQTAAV
T5 sequence (P24387 whole entry): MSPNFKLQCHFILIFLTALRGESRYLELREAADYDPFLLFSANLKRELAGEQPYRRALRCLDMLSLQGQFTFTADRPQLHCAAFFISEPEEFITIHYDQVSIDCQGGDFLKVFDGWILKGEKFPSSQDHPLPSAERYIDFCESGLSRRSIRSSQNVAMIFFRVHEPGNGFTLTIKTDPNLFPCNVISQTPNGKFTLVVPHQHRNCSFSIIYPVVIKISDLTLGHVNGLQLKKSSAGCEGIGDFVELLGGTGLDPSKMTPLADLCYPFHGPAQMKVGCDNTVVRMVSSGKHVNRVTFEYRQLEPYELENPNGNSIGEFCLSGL

Estrogen receptor = target: T6, Estrogen receptor (Homo sapiens, UniProt P03372); assay: blockers of SRC-3 recruitment to ERα – biochemical, ELISA, streptavidin-HRP readout, orthogonal assay, confirmation (AID 1079)
T6 sequence (P03372 whole entry): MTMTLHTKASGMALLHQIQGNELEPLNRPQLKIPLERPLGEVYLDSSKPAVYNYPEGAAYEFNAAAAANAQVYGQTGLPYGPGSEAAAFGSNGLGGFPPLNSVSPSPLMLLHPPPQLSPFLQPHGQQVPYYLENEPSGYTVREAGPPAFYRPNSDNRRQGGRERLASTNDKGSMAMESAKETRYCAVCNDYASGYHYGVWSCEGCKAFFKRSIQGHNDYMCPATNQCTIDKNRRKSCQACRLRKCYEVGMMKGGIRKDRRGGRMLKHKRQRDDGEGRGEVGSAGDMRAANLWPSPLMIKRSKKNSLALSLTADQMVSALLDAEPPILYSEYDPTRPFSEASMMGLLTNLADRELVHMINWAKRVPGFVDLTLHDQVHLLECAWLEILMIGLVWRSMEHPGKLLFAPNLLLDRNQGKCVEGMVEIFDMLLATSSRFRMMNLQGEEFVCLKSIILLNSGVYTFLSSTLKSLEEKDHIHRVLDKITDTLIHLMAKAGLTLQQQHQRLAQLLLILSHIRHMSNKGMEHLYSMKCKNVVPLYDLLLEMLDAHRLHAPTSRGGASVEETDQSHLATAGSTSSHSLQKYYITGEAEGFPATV

With `N#C/C(=C\c1ccc(O)c([N+](=O)[O-])c1)c1nc2ccccc2s1` the IC50 [1] was 3.41 µM (active), the EC50 (Protein RecA) was 4.58 µM (active) and the IC50 (Aminopeptidase N) was 33.9 µM (active). The AC50 [2] was 7.01 µM (active), the IC50 [3] was 71.8 µM (active) and the IC50 [4] was > 100 µM (active).
In the case of `CCN(CC)c1ccc(/C=C2\CCC(/C=N/NC(=O)c3ccc(=O)n(C)c3)=C2N2CCOCC2)cc1`, the IC50 [5] is reported as 16.6 µM (not active), the IC50 (Insulin-degrading enzyme) is reported as 12.5 µM (not active) and the EC50 [6] is reported as 5.19 µM (active).
With `N#Cc1cccc(N2CCN(C(=O)CCCCCn3c(=S)[nH]c4ccccc4c3=O)CC2)c1` the IC50 (Estrogen receptor) was 0.09 µM (not active).
